Reference: publication PMC8318231, “Rate-of-Kill (RoK) assays to triage large compound sets for Chagas disease drug discovery: Application to GSK Chagas Box” (PLoS Neglected Tropical Diseases, 2021)

How the values were obtained:
[1] = test system: T. cruzi Tulahuen trypomastigotes; assay: T. cruzi trypomastigote assay (Cell Titer-Glo viability, ATP luminescence); format: cell-based, Trypanosoma cruzi; details: for Trypomastigotes pIC50 48 hours: 48 hours incubation; for Trypomastigotes pIC50 48 hours / Trypomastigotes pIC50 72 hours: pIC50 = -log10 IC50 in molar units; for Trypomastigotes pIC50 72 hours: 72 hours incubation; for 72 pIC50: 72 h
Outline: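 Compounds were tested in dose response or once at a final 5 μM against 5 × 10^4 trypomastigotes per well (DMEM, 2% FBS), collected on days 5–8 from LLC-MK2 infected cultures. ATP luminescence via CellTiter-Glo reports live parasites; DMSO defines 0% and cell-free wells 100% effect.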

[2] = test system: T. cruzi intracellular amastigotes in H9c2 cells; assay: Rate-of-Kill (RoK) high-content imaging assay, amastigotes per cell (AM/CELL) and curve descriptors; format: cell-based, Trypanosoma cruzi; set-up: key to ME_24h / ME_48h / ME_72h: % reduction in parasite burden (cidal response); t50pct_MCC50 / t50pct_Cmax: unit not given here; details: for ME_24h: 24h; for ME_48h: 48h; for ME_72h: 72h; for t50%_Cmax / tlag_Cmax / t50pct_Cmax: at Cmax; for ME_24h (%): maximum effect at 24 h; for ME_24h (%) / ME_48h (%) / ME_72h (%): RoK assay; for ME_48h (%): maximum effect at 48 h; for ME_72h (%): maximum effect at 72 h; for ME 24h (maximum effect at 24 hours, intracellular amastigotes): maximum percentage of parasite burden reduction reached by any concentration
Procedure: For this high-content intracellular imaging assay, H9c2 cells were seeded in 225 cm^2 T- FLASK in DMEM with 10% FBS for 4 h to allow attachment. T. cruzi trypomastigotes, collected at days 5 to 8 after infection from LLC-MK2 parasite infected cultures, were allowed to swim out for 4 h at 37°C from a centrifuged pellet (1,600 x g / 10 min). Trypomastigotes were then collected and counted in a CASY Cell Counter using the 60 μm capillary. Trypomastigotes, in supplemented DMEM, were added to H9c2 cultures in a multiplicity of infection (MOI) of 8 and incubated for 18 h. Cells were washed once with PBS before incubation of the infected H9c2 monolayer with trypsin (Life-Technologies) to detach cells from the flask. Cells were counted in a CASY Cell Counter, using the 150 μm capillary, and their density set at 5 x 10^4 cells/mL in supplemented DMEM. Infected H9c2 were dispensed into 384-well plates at 50 μL per well using a Multidrop Combi dispenser. Control wells used to determine a 100% parasitic growth (full 6th column of each plate) were left untreated, whereas not infected cells were added in the control wells used as 0% parasite growth (or 100% parasite growth inhibition; full 18th column of each plate). The four plates corresponding to each RoK assay were predispensed for the same mother plate. […] Cultures were then fixed and stained with 50 μL per well of a PBS solution containing 4% formaldehyde and 2 μM DRAQ5 DNA dye (BioStatus, UK). Then plates were read in a PerkinElmer Opera Phenix using a 20x objective, 3 fields per well. DRAQ5 signal was detected using 640 nm excitation laser and a 690/50 nm emission detection filter. Automated image analysis was performed with a script developed on Acapella High Content Imaging and Analysis Software (PerkinElmer). Two outputs were provided for each sample well: (1) number of host cells nuclei to determine drug-related cytotoxicity (aka H9c2) and (2) number of amastigotes per cell as infection level measurement (aka AM/CELL). Each output is plotted as a time course for each compound at every concentration. This assay was adapted from Alonso-Padilla et al. and Peña et al..
To identify and classify the different compounds, the number of amastigotes per cell (AM/CELL) raw data obtained in rate of kill assay are normalised using the average of C1 (infected cells) at time 4 hours as 0% effect and the average of C2 (non-infected cells) for each time as 100% effect, according to the following Eq 1: %CIDALRESPONSE=100*[Avg_C14h-RawData]/[Avg_C14h-Avg_C2] (1)
• ME (Maximum Effect) is the maximum percentage of parasite burden reduction reached by any compound concentration. Compounds that decrease the initial parasite load will show a positive value of ME, whereas compounds that allow the progression of infection will render a negative ME value. […] It is calculated for the MCC50 (t50%_MCC50) and for the maximum concentration (t50%_Cmax). […] The value of this parameter is not either interpolated or extrapolated, and it refers to the first experimental time-course point at which a 50% of effect is reached or exceeded. • tlag defines the time elapsed for one particular concentration to reduce parasite burden between two consecutive points at any moment of the time course. It is calculated for the MCC50 (tlag_MCC50) and for the maximum concentration (tlag_Cmax). The value of this parameter is not either interpolated or extrapolated, and it refers to the first experimental time-course point of a positive slope in the normalised plot (i.e. %Cidal_Response). • Cmin_Tox (Minimal CytoToxic Concentration) is the lowest compound concentration that is reducing the number of host mammalian cells below 50% of initial cell density. Cytotoxic compounds may mislead a bona fide antiparasitic action.

TcCYP51 = details: formerly reported; cited from earlier work

SMILES	Trypomastigotes pIC50 48 hours [1]	Trypomastigotes pIC50 72 hours [1]	ME_24h ([2]; figure 5)	ME_48h ([2]; figure 5)	ME_72h ([2]; figure 5)	MCC50 ([2]; RoK curve descriptor)	MCCE ([2]; RoK curve descriptor)	t50%_Cmax [2]	tlag_Cmax [2]	t50pct_Cmax ([2]; figure 5)	tlag_Cmax ([2]; figure 5)	t50%_MCC50 ([2]; at MCC50)	tlag_MCC50 ([2]; at MCC50)	t50pct_MCC50 ([2]; at MCC50, figure 5)	tlag_MCC50 ([2]; at MCC50, figure 5)	MCCE ([2]; figure 5)	ME_24h (%) [2]	ME_48h (%) [2]	ME_72h (%) [2]	ME 24h (maximum effect at 24 hours, intracellular amastigotes) [2]	further results
COc1ccc(NS(=O)(=O)c2cccc(NC(=O)c3cc(F)cc(F)c3)c2)cc1 [TCMDC-143108]	5	5.6	74.207	103.042	85.1326	5.6 µM	1.9 µM	24.0 h	4.0 h	24	4	48.0 h	14.0 h	48	14	1.852	74.2%	103.0%	85.1%	70.2211%	AM/CELL NORM ([2]; Time 4, figure 4 A): 3.957; AM/CELL NORM ([2]; Time 24, figure 4 A): 27.4841; AM/CELL NORM ([2]; Time 48, figure 4 A): 38.7704; AM/CELL NORM ([2]; Time 72, figure 4 A): 44.9716; MCC50 ([2]; figure 5, in µM): 5.556; CYP51 pIC50 (TcCYP51): < 4
Cc1cc(N(C)C)nc(Nc2ccccc2C)n1 [TCMDC-143109]	5.7	5.6	47.5747	78.0835	82.1728	5.6 µM	1.9 µM	48.0 h	4.0 h	48	4	48.0 h	4.0 h	48	4	1.852	47.6%	78.1%	82.2%	47.5747%	AM/CELL NORM ([2]; Time 4, sheet figure 4 A): 2.321; AM/CELL NORM ([2]; Time 24, sheet figure 4 A): 36.6087; AM/CELL NORM ([2]; Time 48, sheet figure 4 A): 78.0835; AM/CELL NORM ([2]; Time 72, sheet figure 4 A): 76.3621; MCC50 ([2]; figure 5, in µM): 5.556; CYP51 pIC50 (TcCYP51): < 4
O=C1CSC(c2cccnc2)N1c1ccc(Cl)cc1Cl (stereo not shown) [TCMDC-143114]	< 4.3	< 4.3	-4.949	48.1247	74.0117	50.0 µM	0.6 µM	72.0 h	24.0 h	72	24	72.0 h	24.0 h	72	24	0.6173	-5.0%	48.1%	74.0%	-4.949%	72 pIC50 (trypomastigotes, raw data of Fig 1D) ([1]; 72 hours, plotted values, censored values given without sign): < 4.3; 48 pIC50 ([1]; trypomastigote assay, 48 h, figure 1A): < 4.3; 72 pIC50 ([1]; trypomastigote assay, figure 1A): < 4.3; 72 pIC50 ([1]; trypomastigote assay, figure 1B): < 4.3; AM/CELL NORM ([2]; Time 4, sheet figure 4 A): 4.621; AM/CELL NORM ([2]; Time 24, sheet figure 4 A): -4.949; AM/CELL NORM ([2]; Time 48, sheet figure 4 A): 48.1247; AM/CELL NORM ([2]; Time 72, sheet figure 4 A): 74.0117; MCC50 ([2]; figure 5): 50 µM; CYP51 pIC50 (TcCYP51): 6.8
